Experimental findings from US20260091026A1, “METHODS OF TREATING INFLAMMATORY DISEASES” (INTERLINE THERAPEUTICS, INC., priority 2023, published 2026) are described below.

The test system of assay [1] is THP1-Dual cells, NF-κB pathway (SEAP). Briefly: THP-1 Dual cell SEAP assay (L18-MDP stimulated). Type of assay: cell-based. As to conditions: Homo sapiens, 10 ng/mL L18-MDP, 20-24 h, SEAP readout, read-out: IFNγ THP1 IC50. In a few lines: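 About 25,000 THP1-Dual cells per well were preincubated 30 min with serially diluted compound, then stimulated overnight (20-24 h, 37 °C) with 10 ng/mL L18-MDP (final). NF-κB-driven SEAP in supernatant was read with QUANTI-Blue at OD 620-655 nm after 2 h; % inhibition versus DMSO/L18-MDP wells was fitted by non-linear regression to give IC50.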

Assay [2] concerns the target T1, GST-RIPK2 fusion protein (human RIPK2 amino acids 1-310) (Homo sapiens, UniProt O43353).
T1 construct: made in house; host or cells: baculovirus-infected Sf9 cells
Put plainly: RIPK2 binding competition assay (TR-FRET, Tracer 199). As to conditions: displacement of Tracer 199 (10 nM), 45 min at 22° C. The source says: The ability of selected compounds of Formulas (I) and (II) to inhibit the binding of an Alexa647-labelled ATP-competitive kinase inhibitor to a GST-RIPK2 fusion protein was quantified employing the TR-FRET-based RIPK2 binding competition assay as described in the following paragraphs.
Recombinant fusion protein of N-terminal Glutathione-S-Transferase (GST) and a fragment of human RIPK2 (amino acids 1-310 of accession number 043353), expressed in baculovirus infected Sf9 cells, purified via glutathione affinity chromatography, was used as GST-RIPK2 fusion protein. Tracer 199 from Life Technologies (catalogue no. PR9115B) was used as Alexa647-labelled ATP-competitive kinase inhibitor.
For the assay, 50 nL of a 100-fold concentrated solution of each test compound in DMSO was pipetted into either a black low volume 384-well microtiter plate or a black 1536-well microtiter plate (both Greiner Bio-One, Frickenhausen, Germany), 3 μL solution of Tracer 199 (16.7 nM=>final concentration in 5 μL assay volume is 10 nM) in aqueous assay buffer (25 mM Tris/HCl pH 7.5, 10 mM magnesium chloride (MgCl2), 5 mM β-glycerophosphate, 2.5 mM dithiothreitol (DTT), 0.5 mM ethylene glycol-bis(2-aminoethylether)-N,N,N′,N′-tetraacetic acid (EGTA), 0.5 mM sodium ortho-vanadate, 0.01% (w/v) bovine serum albumin (BSA), 0.005% (w/v) Pluronic F-127 (Sigma)) were added. Then the binding competition was started by the addition of 2 μL of a solution of the GST-RIPK2 fusion protein (2.5 nM=>final conc. in the 5 μL assay volume is 1 nM) and of Anti-GST-Tb (1.25 nM=>final conc. in the 5 μL assay volume is 0.5 nM), a Lumi4®—Tb cryptate-conjugated anti-GST antibody from PerkinElmer (catalogue no 61GSTTAH), in assay buffer.
The resulting mixture was incubated 45 min at 22° C. to allow the formation of a complex between the Tracer 199, the fusion protein and Anti-GST-Tb. Subsequently, the amount of this complex was evaluated by measurement of the resonance energy transfer from the Tb-cryptate to the Tracer 199. Therefore, the fluorescence emissions at 620 nm and 665 nm after excitation at 337 nm were measured in a TR-FRET reader, e.g. a Pherastar FS(BMG Labtechnologies, Offenburg, Germany) or a Viewlux (PerkinElmer). The ratio of the emissions at 665 nm and at 620 nm was taken as the measure of the amount of the complex. The data were normalized (assay reaction without inhibitor=0% activity, all other assay components but no GST-RIPK2 fusion protein=−100% activity).

In assay [3] the target is T2, RIPK2 (KD)/XIAP (BIR2) (Homo sapiens, UniProt O43353).
T2 construct: made in house; host or cells: baculovirus-infected Sf9 cells
T2 sequence (O43353 1-310): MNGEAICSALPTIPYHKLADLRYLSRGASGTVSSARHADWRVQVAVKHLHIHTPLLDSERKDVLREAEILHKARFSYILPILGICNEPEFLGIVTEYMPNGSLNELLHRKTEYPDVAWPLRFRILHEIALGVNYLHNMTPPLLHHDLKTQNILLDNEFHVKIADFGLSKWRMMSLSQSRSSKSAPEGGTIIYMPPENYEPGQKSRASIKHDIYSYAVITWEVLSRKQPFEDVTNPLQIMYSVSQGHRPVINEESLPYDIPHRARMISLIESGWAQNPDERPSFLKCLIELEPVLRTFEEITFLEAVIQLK
Briefly: RIPK2-XIAP binding competition PPI assay (TR-FRET). As to conditions: for Emax / PPI Amax: 50 nM of GSK583 = -100% activity; for Emax: read-out: PPI Amax; for IC50: GST-RIPK2 / His-XIAP (BIR2)-avi, 120 min at 23° C. The essentials: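 TR-FRET competition between GST-RIPK2 (aa 1-310, 1 nM) and His-XIAP BIR2-avi (aa 152-231, 25 nM), both Sf9-expressed, detected with anti-His-XL665 and anti-GST-Tb in Tris pH 7.5 buffer with MgCl2, DTT and vanadate. Incubation was 120 min at 23 °C; the 665/520 nm ratio was normalized to no inhibitor (0%) and 50 nM GSK583 (−100%).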

Structures are written as SMILES.

T1 sequence (O43353 1-310): as above

As a reminder, the IC50 is the concentration at which inhibition is half-maximal. As to `COc1cc2ncc(-n3cc(NC(=O)[C@@H](C)c4ccccc4)cn3)n2cc1S(=O)(=O)C(C)(C)C` [Example 162, (S)-N-(1-(6-(tert-butylsulfonyl)-7-methoxyimidazo[1,2-a]pyridin-3-yl)-1H-pyrazol-4-yl)-2-phenylpropanamide], the IC50 in assay [1] was > 2500 nM; in assay [2], 500 to 1000 nM; in assay [3], > 1000 nM. The Emax in assay [3] is ≥ 80%.

As to `COc1cc2ncc(-n3cc(N4CCC(c5ccccc5)C4=O)cn3)n2cc1S(=O)(=O)C(C)(C)C` (single isomer, unassigned) [Example 182, (R)- or (S)-1-(1-(6-(tert-butylsulfonyl)-7-methoxyimidazo[1,2-a]pyridin-3-yl)-1H-pyrazol-4-yl)-3-phenylpyrrolidin-2-one], the IC50 was > 2500 nM in assay [1], > 1000 nM in assay [2] and > 1000 nM in assay [3]. In assay [3], the “PPI Amax” value is listed as “C (Amax of 55%>C>30)”.

Consider `COc1cc2ncc(-n3cc(NC(=O)[C@H]4CC[C@@H](O)CC4)cn3)n2cc1S(=O)(=O)C(C)(C)C` [Example 172, (1s,4s)-N-(1-(6-(tert-butylsulfonyl)-7-methoxyimidazo[1,2-a]pyridin-3-yl)-1H-pyrazol-4-yl)-4-hydroxycyclohexane-1-carboxamide], for which the IC50 in assay [1] is > 2500 nM; in assay [2], > 1000 nM; in assay [3], > 1000 nM. In addition, the Emax in assay [3] was 30 to 55%.

Consider `COc1cc2ncc(-n3cc(NC(=O)N4CCCC4c4ccccc4)cn3)n2cc1S(=O)(=O)C(C)(C)C` (single isomer, unassigned) [Example 178, (R)- or (S)-N-(1-(6-(tert-butylsulfonyl)-7-methoxyimidazo[1,2-a]pyridin-3-yl)-1H-pyrazol-4-yl)-2-phenylpyrrolidine-1-carboxamide], for which the IC50 in assay [1] is > 2500 nM; in assay [2], > 1000 nM; in assay [3] it was > 1000 nM. In addition, the “PPI Amax” value in assay [3] is recorded as “C (Amax of 55%>C>30)”.

Regarding `COc1cc2ncc(-n3cc(C(=O)NCc4ccccc4)cn3)n2cc1S(=O)(=O)C(C)(C)C` [Example 1, N-benzyl-1-(6-(tert-butylsulfonyl)-7-methoxyimidazo[1,2-a]pyridin-3-yl)-1H-pyrazole-4-carboxamide], the values for the IC50 in assay [1], in assay [2] and in assay [3] were > 2500 nM, 200 to 500 nM and 100 to 1000 nM, respectively. In addition, in assay [3], the Emax is ≥ 80%.

Take `COc1cc2ncc(-n3cc(NC(=O)Cc4cccc(F)c4Cl)cn3)n2cc1S(=O)(=O)C(C)(C)C` [Example 156, N-(1-(6-(tert-butylsulfonyl)-7-methoxyimidazo[1,2-a]pyridin-3-yl)-1H-pyrazol-4-yl)-2-(2-chloro-3-fluorophenyl)acetamide]: the IC50 in assay [1] was > 2500 nM; in assay [2], 500 to 1000 nM; in assay [3], > 1000 nM. Further, the Emax in assay [3] was ≥ 80%.

On to `COc1cc2ncc(-n3cc(NC(=O)OC(C)(C)C)cn3)n2cc1SC(C)(C)C` [Example 153, tert-butyl (1-(6-(tert-butylthio)-7-methoxyimidazo[1,2-a]pyridin-3-yl)-1H-pyrazol-4-yl)carbamate], for which the values for the IC50 in assay [1], in assay [2] and in assay [3] were > 2500 nM, 200 to 500 nM and > 1000 nM, respectively. Moreover, in assay [3], the Emax was ≥ 80%.

For `COc1cc2ncc(-n3cc(N(C)C(=O)Cc4ccccc4Cl)cn3)n2cc1S(=O)(=O)C(C)(C)C` [Example 173, N-(1-(6-(tert-butylsulfonyl)-7-methoxyimidazo[1,2-a]pyridin-3-yl)-1H-pyrazol-4-yl)-2-(2-chlorophenyl)-N-methylacetamide], the values for the IC50 in assay [1], in assay [2] and in assay [3] were > 2500 nM, > 1000 nM and > 1000 nM, respectively. The Emax in assay [3] was ≥ 80%.

As to `COc1cc2ncc(-n3cc(NC(=O)Cc4c(F)cccc4Cl)cn3)n2cc1S(=O)(=O)C(C)(C)C` [Example 159, N-(1-(6-(tert-butylsulfonyl)-7-methoxyimidazo[1,2-a]pyridin-3-yl)-1H-pyrazol-4-yl)-2-(2-chloro-6-fluorophenyl)acetamide], the values for the IC50 in assay [1], in assay [2] and in assay [3] were 500 to 2500 nM, < 200 nM and 100 to 1000 nM, respectively. Also, the Emax in assay [3] was ≥ 80%.

Consider `COc1cc2ncc(-n3cc(NC(=O)C4(F)CCCCC4)cn3)n2cc1S(=O)(=O)C(C)(C)C` [Example 169, N-(1-(6-(tert-butylsulfonyl)-7-methoxyimidazo[1,2-a]pyridin-3-yl)-1H-pyrazol-4-yl)-1-fluorocyclohexane-1-carboxamide], for which the IC50 in assay [1] was > 2500 nM; in assay [2], 200 to 500 nM; in assay [3] it was > 1000 nM. Besides, the Emax in assay [3] was ≥ 80%.

Consider `COc1cc2ncc(-n3cc(NC(=O)C4CC4)cn3)n2cc1S(=O)(=O)C(C)(C)C` [Example 163, N-(1-(6-(tert-butylsulfonyl)-7-methoxyimidazo[1,2-a]pyridin-3-yl)-1H-pyrazol-4-yl)cyclopropanecarboxamide], for which the IC50 in assay [1] was > 2500 nM; in assay [2], > 1000 nM; in assay [3] it was > 1000 nM. In addition, the Emax in assay [3] was ≤ 30%.

On to `COc1cc2ncc(-n3cc(NC(=O)Cc4ccc(F)cc4Cl)cn3)n2cc1S(=O)(=O)C(C)(C)C` [Example 158, N-(1-(6-(tert-butylsulfonyl)-7-methoxyimidazo[1,2-a]pyridin-3-yl)-1H-pyrazol-4-yl)-2-(2-chloro-4-fluorophenyl)acetamide], for which the figures for the IC50 in assay [1], in assay [2] and in assay [3] were > 2500 nM, 500 to 1000 nM and > 1000 nM, respectively. For the same compound, the Emax in assay [3] is ≥ 80%.
